In US9610331B2, “Methods for hematopoietic precursor mobilization” (Yeda Research and Development Co. Ltd., priority 2009, dated 2017):
Ends that are not written are not given here. * marks the point of attachment. Palmitoyl = CCCCCCCCCCCCCCCC(=O)*

Tests used:
C57BL mice = assay: G-CSF induced splenomegaly (spleen weight) in C57BL mice; assay type: in vivo
Description: All animals were maintained under conditions approved by the Institutional Animal Care and Use Committee at the Weizmann Institute. The study protocol was approved by the ethics committees at Weizmann Institute. In these experiments, 8 to 10 week old immune competent C57BL mice were used. All mice were kept in small cages (up to five animals per cage) and fed sterile food.
Mice were treated by daily subcutaneous injections of recombinant human G-CSF (Neupogen, Amgen) at a dose of 250 μg per kg per day for 7 days. To determine the spleen weight, mice were euthanized and spleens were harvested 7 days after the initiation of G-CSF treatment.
Dabigatran etexilate (Boehringer Ingelheim Pharma KG, Biberach, Germany) was administered orally at a dosage of 30 mg/kg. A final volume of 0.3 ml dissolved in DDW was administered daily.
The palmitoylated peptides: pal-RCLSSSAVANRS (PAR1 antagonist, SEQ ID NO: 1) and pal-SGRRYGHALR (PAR4 antagonist, SEQ ID NO: 2) were prepared by solid-phase peptide synthesis using in situ neutralization/HBTU by Hadar Biotec, Israel. The mice were treated by vehicle control, or with PAR1 antagonist or PAR4 antagonist at 0.5 mg/kg, intraperitoneally on daily basis.

spleen cells = assay: Cellular composition of spleen by flow cytometry; assay type: in vivo, mouse; settings: for B cells (B220) / Granulocytes (Gr-1) / Macrophages (CD11b) / T cells (CD3): spleen, C57BL mice, 7 days treatment, mean ± SD
Description: (§1) Membrane expression of different molecules on mouse bone marrow (BM) and spleen cells was detected by flow cytometry, using one- or two-step staining procedures.
(§2) Cellular composition of the hematopoietic compartment was stained by CD3-FITC, B220-PE, CD-11b allophycocyanin and Gr-1 FITC ((Pharmigen, BD).
(§3) After staining, cells were washed and analyzed LSRII (Becton Dickinson) using FlowJo software.
(§4) Comparisons between the different groups were evaluated using the Student's test. Data were expressed as mean±SD, and were considered statistically significant at p values of 0.05 or less.

bone marrow (BM) cells = assay: Cellular composition of bone marrow by flow cytometry; assay type: in vivo, mouse; settings: for B cells (B220) / Granulocytes (Gr-1) / Macrophages (CD11b) / T cells (CD3): bone marrow, C57BL mice, 7 days treatment, mean ± SD
Description: as §1, §2, §3, §4

[1] = system: hematopoietic progenitors; assay: Colony-forming assay of spleen cells (CFU/spleen); assay type: in vivo, mice; settings: for precursor mobilization (CFU/spleen), enhancement as compared to non-treated mice: antagonist added to G-CSF treatment; for circulating CFU/spleen compared with C57BL/6 mice: at 7 days after G-CSF treatment, P<0.05 vs C57BL/6 (n=5), FIG. 3 legend
Description: All animals were maintained under conditions approved by the Institutional Animal Care and Use Committee at the Weizmann Institute. The study protocol was approved by the ethics committees at Weizmann Institute. In these experiments, 8 to 10 week old immune competent C57BL mice and C57BL hemophilic (C57BL Hem F8) mice were used. All mice were kept in small cages (up to five animals per cage) and fed sterile food. Cells were plated in 0.9% methylcellulose (Sigma Chemical Co.), 30% FCS, DMEM medium (Sigma Chemical Co.), 50 ng/ml stem cell factor (SCF), 5 ng/ml IL-3 (R&D Systems Inc.), 5 ng/ml GM-CSF (R&D Systems Inc.), and 2 U/ml erythropoietin (EPO; Orto Bio Tech, Don Mills, Ontario, Canada). Total spleen cells 5×10^5 were seeded in semisolid cultures. Colonies were scored 7 days later under an inverted microscope (CK2; Olympus), applying morphological criteria. To study the role of thrombin in the mobilization of hematopoietic progenitors, inventors enumerated these cells by their ability to form colonies in semi-solid media. Thus, after 7 days of treatment with G-CSF with or without PAR antagonists, the number of hematopoietic progenitors in the spleen was estimated by plating the low density mononuclear cells in methylcellulose containing appropriate nutrients and growth factors (see materials and experimental procedures, above). The plates were incubated for 7 days and the colonies were scored using a low magnification microscope. The number of progenitors mobilized into the spleen was presented as CFU/spleen (FIG. 3). […] However, the addition of PAR1 or PAR4 antagonists to G-CSF treatment led to further enhancement of precursor mobilization by 15.3 and 6.4 fold, respectively (as compared to non-treated mice). Likewise, in Factor VIII knock out (KO) mice, which have low thrombin levels due to the absence of Factor VIII, an enhancement of spleen colonies by a factor of 15.9 was recorded upon treatment with G-CSF.

Lin−Kit+Sca+ stem cell = assay: Lin-Kit+Sca+ stem cell numbers in blood, spleen and BM by FACS; assay type: in vivo, mouse; settings: FIG. 4
Excerpt: Membrane expression of different molecules on mouse bone marrow (BM), spleen and peripheral blood (PB) mononuclear cells (MNCs) was detected by flow cytometry, using one- or two-step staining procedures.
Cells were stained for lineage negative Lin− (CD3, B220, CD11b, Gr-1 and Ten-119 were biotinilated and detected by strepavidine Pe-Cy7), stem cell factor receptor positive (c-kit allophycocyanin+), stem cell antigen-1 positive (Sca-1 PE+) using Pharmigen, BD.
After staining, cells were washed and analyzed on LSRII (Becton Dickinson) using FlowJo software.
as §4

CD34+ cells = settings: cited from earlier work
HSPC = settings: after a single injection; cited from earlier work
C57BL/6 mice = settings: 7 day daily G-CSF treatment of C57BL/6 mice; cited from earlier work
[2] = with G-CSF for 7 days, antagonist 0.5 mg/kg intraperitoneally daily, FIG. 2

Molecule	G-CSF induced splenomegaly (C57BL mice; [2])	B cells (B220) (spleen cells) [%]	Granulocytes (Gr-1) (spleen cells) [%]	Macrophages (CD11b) (spleen cells) [%]	T cells (CD3) (spleen cells) [%]	B cells (B220) (bone marrow (BM) cells) [%]	Granulocytes (Gr-1) (bone marrow (BM) cells) [%]	Macrophages (CD11b) (bone marrow (BM) cells) [%]	T cells (CD3) (bone marrow (BM) cells) [%]	precursor mobilization (CFU/spleen), enhancement as compared to non-treated mice ([1]; 7 days, C57BL mice, FIG. 3) [fold]	circulating CFU/spleen compared with C57BL/6 mice [1]	also measured
pal-RCLSSSAVANRS (Palmitoyl-RCLSSSAVANRS) [PAR1 antagonist]	significantly enhanced	50.57 ± 4.36	3.99 ± 2.42	2.96 ± 1.18	39.59 ± 3.41	13.42 ± 5	38.26 ± 5.31	34.40 ± 5.16	2.28 ± 0.46	15.3	more	Lin−Kit+Sca+ stem cell number in the blood and the spleen (Lin−Kit+Sca+ stem cell; co-treatment with G-CSF): highest increase; Lin−Kit+Sca+ stem cell numbers in the bone marrow (Lin−Kit+Sca+ stem cell; co-treatment with G-CSF): clearly enhanced; Lin−Kit+Sca+ stem cells numbers in the blood and especially in the BM (Lin−Kit+Sca+ stem cell; without G-CSF treatment): marked enhancement
pal-SGRRYGHALR (Palmitoyl-SGRRYGHALR) [PAR4 antagonist]	significantly enhanced	46.34 ± 4.23	4.41 ± 2.08	3.53 ± 1.49	39.63 ± 3.52	16.16 ± 7.26	50.58 ± 9.74	41.06 ± 12.93	2.93 ± 1.54	6.4	more	B cell numbers in the spleen (spleen cells; summary of Table 1): reduced; B cell numbers in the BM (bone marrow (BM) cells; Table 2): reduced
c1cc(CN2CCCNCCNCCCNCC2)ccc1CN1CCCNCCNCCCNCC1 [AMD3100]	–	–	–	–	–	–	–	–	–	–	–	mobilization capacity of G-CSF (CD34+ cells; in combination with G-CSF in mice): significantly improves; mobilization of CD34+ cells (CD34+ cells; on its own): adequately
CCCCCCOC(=O)NC(=N)c1ccc(NCc2nc3cc(C(=O)N(CCC(=O)OCC)c4ccccn4)ccc3n2C)cc1 [Dabigatran, Dabigatran etexilate, reference compound]	–	–	–	–	–	–	–	–	–	–	–	G-CSF induced splenomegaly (C57BL mice; in conjunction with G-CSF 250 μg per kg per day s.c. for 7 days, Dabigatran etexilate 30 mg/kg orally daily, FIG. 1): marked enhancement
zymosan	–	–	–	–	–	–	–	–	–	–	–	time to mobilize HSPC (HSPC): ≤ 1 h
G-CSF: recombinant human G-CSF (Neupogen, Amgen) (protein, UniProt P09919 31-207, looked up, filgrastim) Granulocyte …: TPLGPASSLPQSFLLKCLEQVRKIQGDGAALQEKLVSECATYKLCHPEELVLLGHSLGIPWAPLSSCPSQALQLAGCLSQLHSGLFLYQGLLQALEGISPELGPTLDTLQLDVADFATTIWQQMEELGMAPALQPTQGAMPAFASAFQRRAGGVLVASHLQSFLEVSYRVLRHLAQP	–	47.37 ± 1.33	10.21 ± 2.69	8.16 ± 2.07	34.16 ± 3.17	3.18 ± 1.01	77.06 ± 7.38	74.37 ± 7.79	0.98 ± 0.85	–	–	number of granulocytes and macrophages in the spleen (spleen cells; after G-CSF treatment, summary of Table 1): marked elevation; number of granulocytes and macrophages in the BM (bone marrow (BM) cells; after G-CSF treatment, Table 2): marked elevation; enhancement of spleen colonies ([1]; Factor VIII knock out (KO) mice, upon treatment with G-CSF): 15.9 fold; mobilization of progenitors (CFU/spleen), enhancement as compared to non-treated mice ([1]; G-CSF treatment alone, 7 days, C57BL mice, FIG. 3): 2.8 fold; hematopoietic stem cell (HSC) mobilization and splenomegaly (C57BL/6 mice): induced
